Data: patent US20260285850A1, “SUBSTITUTED OXAZOLIDINONES AND IMIDAZOLINONES AS HERBICIDES” (FMC CORPORATION, priority 2023, published 2026)

Tests used:
Type in all cases: in vivo
[1] = test system: ragweed (common ragweed, Ambrosia artemisiifolia); assay: Test A preemergence soil spray, visual injury rating 0-100; details: 0 to 100 scale, 10 days
Method in brief: (§1)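 Greenhouse test: loam/sand pots received a surfactant-containing formulation, as a preemergence directed soil spray or a postemergence spray on young plants. Injury was judged visually at day 10 relative to untreated controls.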

[2] = test system: palmer (palmer amaranth, palmer pigweed, Amaranthus palmeri); assay: as above; details: 0 to 100 scale, 10 days
Method in brief: as §1

[3] = test system: kochia (Bassia scoparia); assay: as above; details: 0 to 100 scale, 10 days
Method in brief: as §1

[4] = test system: barnyardgrass (Echinochloa crus-galli); assay: as above; details: 0 to 100 scale, 10 days
Method in brief: as §1

[5] = test system: ryegrass, Italian (italian ryegrass, Lolium multiflorum); assay: as above; details: 0 to 100 scale, 10 days
Method in brief: as §1

[6] = test system: corn (Zea mays); assay: as above; details: 0 to 100 scale, 10 days
Method in brief: as §1

[7] = test system: wheat (Triticum aestivum); assay: as above; details: 0 to 100 scale, 10 days
Method in brief: as §1

[8] = test system: soybean (Glycine max); assay: as above; details: 0 to 100 scale, 10 days
Method in brief: as §1

[9] = test system: green foxtail (Setaria viridis); assay: as above; details: 0 to 100 scale, 10 days
Method in brief: as §1

[10] = test system: oat, wild (wild oat, Avena fatua); assay: as above; details: 0 to 100 scale, 10 days
Method in brief: as §1

[11] = test system: blackgrass (Alopecurus myosuroides); assay: as above; details: 0 to 100 scale, 10 days
Method in brief: as §1

[12] = test system: rice (Oryza sativa); assay: Test B flooded paddy test, visual plant response rating 0-100; details: 250 g ai/ha, Flood, applied to paddy water, evaluated after 13 days
Method in brief: (§2)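 Compounds applied to standing paddy water (3 cm above soil, maintained for the test duration) on 2-leaf-stage plants; visual rating vs controls at 13 days, greenhouse.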

[13] = test system: ducksalad (Heteranthera limosa); assay: as above; details: 250 g ai/ha, Flood, applied to paddy water, evaluated after 13 days
Method in brief: as §2

[14] = test system: barnyardgrass (Echinochloa crusgalli); assay: as above; details: 250 g ai/ha, Flood, applied to paddy water, evaluated after 13 days
Method in brief: as §2

[15] = test system: sedge, umbrella (small-flower umbrella sedge, Cyperus difformis); assay: as above; details: 250 g ai/ha, Flood, applied to paddy water, evaluated after 13 days
Method in brief: as §2

[16] = test system: ragweed (common ragweed, Ambrosia artemisiifolia); assay: Test A postemergence application, visual injury rating 0-100; details: Postemergence
Method in brief: as §1

[17] = test system: palmer (palmer amaranth, palmer pigweed, Amaranthus palmeri); assay: as above; details: Postemergence
Method in brief: as §1

[18] = test system: kochia (Bassia scoparia); assay: as above; details: Postemergence
Method in brief: as §1

[19] = test system: barnyardgrass (Echinochloa crus-galli); assay: as above; details: Postemergence
Method in brief: as §1

[20] = test system: ryegrass, Italian (italian ryegrass, Lolium multiflorum); assay: as above; details: Postemergence
Method in brief: as §1

[21] = test system: corn (Zea mays); assay: as above; details: Postemergence
Method in brief: as §1

[22] = test system: wheat (Triticum aestivum); assay: as above; details: Postemergence
Method in brief: as §1

[23] = test system: soybean (Glycine max); assay: as above; details: Postemergence
Method in brief: as §1

[24] = test system: horseweed (Erigeron canadensis); assay: as above; details: Postemergence
Method in brief: as §1

[25] = test system: green foxtail (Setaria viridis); assay: as above; details: Postemergence
Method in brief: as §1

[26] = test system: oat, wild (wild oat, Avena fatua); assay: as above; details: Postemergence
Method in brief: as §1

[27] = test system: galium (catchweed bedstraw, Galium aparine); assay: as above; details: Postemergence
Method in brief: as §1

[28] = test system: blackgrass (Alopecurus myosuroides); assay: as above; details: Postemergence
Method in brief: as §1

[29] = 8 g ai/ha, 10 days, 0 is no effect, 100 is complete control
[30] = 31 g ai/ha, greenhouse 10 days, 0 no effect, 100 complete control

## CC1(C(=O)NC2C=CC(C(=O)NS(=O)(=O)C3CC3)C2)CN(c2cc(F)cc(F)c2)C(=O)O1 (stereo not shown) [Compound 87]
[1]; 8 g ai/ha
  Ragweed plant response rating: 10
[1]; 31 g ai/ha
  Ragweed plant response rating: 10
[2]; 8 g ai/ha
  Pigweed, Palmer plant response rating: 10
[2]; 31 g ai/ha
  Amaranth, Palmer (Pigweed, Palmer) plant response rating: 90
[3]; 8 g ai/ha
  Kochia plant response rating: 0
[3]; 31 g ai/ha
  Kochia plant response rating: 10
[4]; 8 g ai/ha
  Barnyardgrass plant response rating: 0
[4]; 31 g ai/ha
  Barnyardgrass plant response rating: 90
[5]; 8 g ai/ha
  Ryegrass, Italian plant response rating: 0
[5]; 31 g ai/ha
  Ryegrass, Italian plant response rating: 30
[6]; 8 g ai/ha
  Corn plant response rating: 0
[6]; 31 g ai/ha
  Corn plant response rating: 0
[7]; 8 g ai/ha
  Wheat plant response rating: 0
[7]; 31 g ai/ha
  Wheat plant response rating: 20
[8]; 8 g ai/ha
  Soybean plant response rating: 0
[8]; 31 g ai/ha
  Soybean plant response rating: 0
[9]; 8 g ai/ha
  Foxtail, Green plant response rating: 30
[9]; 31 g ai/ha
  Foxtail, Green plant response rating: 20
[10]; 8 g ai/ha
  Oat, Wild plant response rating: 0
[10]; 31 g ai/ha
  Oat, Wild plant response rating: 0
[11]; 8 g ai/ha
  Blackgrass plant response rating: 10
[11]; 31 g ai/ha
  Blackgrass plant response rating: 20
[12]
  Plant response rating, Rice (0 to 100 scale, 0 is no effect and 100 is complete control): 0
[13]
  Plant response rating, Ducksalad (0 to 100 scale, 0 is no effect and 100 is complete control): 0
[14]
  Plant response rating, Barnyardgrass (0 to 100 scale, 0 is no effect and 100 is complete control): 0
[15]
  Plant response rating, Sedge, Umbrella (0 to 100 scale, 0 is no effect and 100 is complete control): 0
[16]; [29]
  Ragweed plant response rating (0 to 100 scale): 10
[16]; [30]
  Ragweed plant response rating (0 to 100 scale): 50
[17]; [29]
  Pigweed, Palmer plant response rating (0 to 100 scale): 30
[17]; [30]
  Amaranth, Palmer / Pigweed, Palmer plant response rating (0 to 100 scale): 70
[18]; [29]
  Kochia plant response rating (0 to 100 scale): 30
[18]; [30]
  Kochia plant response rating (0 to 100 scale): 80
[19]; [29]
  Barnyardgrass plant response rating (0 to 100 scale): 50
[19]; [30]
  Barnyardgrass plant response rating (0 to 100 scale): 100
[20]; [29]
  Ryegrass, Italian plant response rating (0 to 100 scale): 20
[20]; [30]
  Ryegrass, Italian plant response rating (0 to 100 scale): 50
[21]; [29]
  Corn plant response rating (0 to 100 scale): 0
[21]; [30]
  Corn plant response rating (0 to 100 scale): 80
[22]; [29]
  Wheat plant response rating (0 to 100 scale): 0
[22]; [30]
  Wheat plant response rating (0 to 100 scale): 100
[23]; [29]
  Soybean plant response rating (0 to 100 scale): 20
[23]; [30]
  Soybean plant response rating (0 to 100 scale): 50
[24]; [29]
  Horseweed plant response rating (0 to 100 scale): 20
[24]; [30]
  Horseweed plant response rating (0 to 100 scale): 30
[25]; [29]
  Foxtail, Green plant response rating (0 to 100 scale): 0
[25]; [30]
  Foxtail, Green plant response rating (0 to 100 scale): 40
[26]; [29]
  Oat, Wild plant response rating (0 to 100 scale): 20
[26]; [30]
  Oat, Wild plant response rating (0 to 100 scale): 90
[27]; [29]
  Galium plant response rating (0 to 100 scale): 50
[27]; [30]
  Galium plant response rating (0 to 100 scale): 70
[28]; [29]
  Blackgrass plant response rating (0 to 100 scale): 0
[28]; [30]
  Blackgrass plant response rating (0 to 100 scale): 30
